Activity calls are given as the source filed them.
Assays:
HCT-116 [1] = assay: Antiproliferative activity against human HCT116 cells at 30 uM for 24 hrs by MTT assay; format: functional
EC9706 [2] = assay: (§1) Antiproliferative activity against human EC9706 cells at 75 uM for 24 hrs by MTT assay; format: functional
EC9706 [3] = assay: Induction of apoptosis in human EC9706 cells assessed as morphological changes at 100 uM after 24 hrs; format: functional, cell-based
EC9706 [4] = assay: (§2) Antiproliferative activity against human EC9706 cells at 100 uM for 24 hrs by MTT assay; format: functional
[5] = Cell cycle arrest in human EC9706 cells assessed as accumulation in G2/M phase at 30 uM after 18 hrs; format: functional, cell-based
HCT-116 [6] = assay: Induction of apoptosis in human HCT116 cells assessed as morphological changes at 100 uM after 24 hrs; format: functional, cell-based
HCT-116 [7] = assay: Antiproliferative activity against human HCT116 cells at 100 uM for 24 hrs by MTT assay; format: functional
[8] = Cell cycle arrest in human EC9706 cells assessed as accumulation in G2/M phase at 30 uM after 12 hrs; format: functional, cell-based
HCT-116 [9] = assay: Induction of apoptosis in human HCT116 cells assessed as increase in cell debris at 30 uM after 18 hrs; format: functional, cell-based
[10] = as §1; format: functional
HCT-116 [11] = assay: Cell cycle arrest in human HCT116 cells assessed as accumulation in G2/M phase at 30 uM after 12 hrs; format: functional, cell-based
[12] = as §2; format: functional

Measured: Activity

N=C(N)NCCC[C@H](NC(=O)[C@H](CCCNC(=N)N)NC(=O)[C@H](CCCNC(=N)N)NC(=O)[C@H](CCC(N)=O)NC(=O)[C@H](CCCNC(=N)N)NC(=O)[C@H](CCCNC(=N)N)NC(=O)[C@H](CCCCN)NC(=O)[C@H](CCCCN)NC(=O)[C@@H](N)CCCNC(=N)N)C(=O)O
inactive: HCT-116 [1] | EC9706 [2] | EC9706 [3] | EC9706 [4] | [5] | HCT-116 [6] | HCT-116 [7] | [8]

H-KAQIRAMECNIL-OH
inactive: HCT-116 [1] | EC9706 [2] | EC9706 [4] | HCT-116 [7]

H-KAQIRAMECNILGRKKRRQRRR-OH
55%: HCT-116 [1]
52%: [12]
16%: HCT-116 [7]
active: HCT-116 [9] | EC9706 [3] | HCT-116 [11] | [5] | HCT-116 [6] | [8]
69%: [10]
